Assay results published in patent US12599609B2, “Methods of treating fuchs endothelial corneal dystrophy after descemetorhexis” (KOWA COMPANY, LTD., priority 2021, dated 2026).
Structures can show the parent of a compound that is named as a salt.

System: patients with FECD after descemetorhexis
Assay: Phase 2 study of ripasudil eye drops after descemetorhexis in patients with Fuchs endothelial corneal dystrophy
Type: in vivo, human
Details: BID and QID dosing of a 0.4% formulation, topical to the eye
Text: As a condition of participating in the clinical study described in Example 3, each patient will undergo descemetorhexis of a study eye selected by the investigator for surgery. A digital photo of the study eye is taken immediately before and immediately after the descemetorhexis. The investigator will perform descemetorhexis to remove central confluent guttae, removing an area of Descemet membrane with a diameter of 4.5 to 5.5 mm. The longest diameter and the shortest diameter must be recorded. Detailed procedures for performing descemetorhexis are described in several literature references, including, for example, Macsai M S, Shiloach M. Cornea. 2019; 38:529-534, and Moloney G, Congote D G, Hirnschall N, et al. Cornea. 2020 Jul. 31. doi: 10.1097/ICO.0000000000002437. Online ahead of print.
Recommended post-descemetorhexis concomitant therapy consists of broad spectrum antibiotic (0.5% moxifloxacin hydrochloride) instilled at least once daily for 1 week and glucocorticoid (1% prednisolone acetate) instilled 3 times daily for the first 7 days, followed by once daily for the next 7 days, and terminated thereafter. The investigator may add antibiotic and glucocorticoid dosing after this 14 days as rescue therapy if the investigator judges it necessary. When more than 1 different eye drop is administered (including study drug), the study drug must be administered first, followed by any non-study eye drop (after at least 5 minutes have passed).
In this U.S. FDA approved study, the primary objective is to investigate the effect of K-321 dosed for 12 weeks on central ECD in patients with FECD after descemetorhexis. […]

C[C@H]1CNCCCN1S(=O)(=O)c1cccc2cncc(F)c12 [ripasudil hydrochloride, Ripasudil]
demonstrated particular benefit: improving best corrected visual acuity (BCVA) | improving central corneal endothelial corneal density (ECD) | reduction of corneal edema
